Assay results reported in publication PMC10573752, “New Benzamides as Multi-Targeted Compounds: A Study on Synthesis, AChE and BACE1 Inhibitory Activity and Molecular Docking” (International Journal of Molecular Sciences, 2023).
Read-outs that look alike come from different tables or passages of the source.

Columns and labels:
[1] = system: AChE; details: cited from earlier work
[2] = system: BACE1; details: cited from earlier work
[3] = system: BuChE; details: cited from earlier work
[4] = biological target: T1, AChE from Electrophorus electricus (electric eel) (Electrophorus electricus, UniProt O42275); assay: biochemical; details: mean ± SD of three independent experiments
T1 construct: purchased Sigma-Aldrich C3389

[5] = biological target: T2, BACE1 (Homo sapiens, UniProt P56817); assay: In vitro β-secretase (BACE1) activity assay kit (fluorescence); type: biochemical, equine
T2 construct: purchased Sigma-Aldrich CS0010

[6] = system: human AChE; details: cited from earlier work
[7] = system: BACE-1; details: cited from earlier work
[8] = biological target: hBuChE; set-up: method as in PMID 23041347; details: cited from earlier work

T2 sequence (P56817 46-457 limits assumed): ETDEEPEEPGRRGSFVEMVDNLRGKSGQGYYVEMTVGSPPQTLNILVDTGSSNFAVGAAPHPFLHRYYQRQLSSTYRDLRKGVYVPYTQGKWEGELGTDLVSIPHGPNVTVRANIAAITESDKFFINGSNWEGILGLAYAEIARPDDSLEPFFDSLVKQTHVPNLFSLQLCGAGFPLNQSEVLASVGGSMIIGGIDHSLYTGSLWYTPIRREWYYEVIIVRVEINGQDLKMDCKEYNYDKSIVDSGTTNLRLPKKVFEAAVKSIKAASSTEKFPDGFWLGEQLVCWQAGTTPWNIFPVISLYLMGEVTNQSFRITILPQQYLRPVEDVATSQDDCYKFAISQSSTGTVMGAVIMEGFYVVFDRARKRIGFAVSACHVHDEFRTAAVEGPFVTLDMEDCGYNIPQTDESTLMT
T1 sequence (O42275 24-633): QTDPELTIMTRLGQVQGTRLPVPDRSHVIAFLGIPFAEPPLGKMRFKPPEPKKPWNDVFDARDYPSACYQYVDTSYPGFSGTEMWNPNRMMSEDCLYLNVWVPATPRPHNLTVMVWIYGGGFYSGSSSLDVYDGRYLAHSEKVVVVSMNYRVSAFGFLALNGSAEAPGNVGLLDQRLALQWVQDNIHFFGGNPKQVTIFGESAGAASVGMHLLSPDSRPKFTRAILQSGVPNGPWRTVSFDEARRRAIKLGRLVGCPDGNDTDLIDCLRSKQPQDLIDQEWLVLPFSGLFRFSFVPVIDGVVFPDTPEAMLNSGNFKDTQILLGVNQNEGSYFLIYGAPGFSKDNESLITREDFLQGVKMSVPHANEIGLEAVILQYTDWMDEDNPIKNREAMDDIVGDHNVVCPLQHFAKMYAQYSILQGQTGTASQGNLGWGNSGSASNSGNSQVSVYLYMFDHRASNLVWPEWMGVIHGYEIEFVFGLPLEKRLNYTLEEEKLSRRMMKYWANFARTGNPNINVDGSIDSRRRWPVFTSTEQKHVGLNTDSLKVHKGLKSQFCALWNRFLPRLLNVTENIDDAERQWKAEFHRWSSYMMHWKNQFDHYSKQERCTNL

Compound: CN(C)CCOc1ccc(NC(=O)c2ccccn2)cc1 [Compound V]
- IC50 ([1]; read-out: AChE inhibitory activity IC50): 2490 ± 190 nM

Compound: C[C@@H](NC(=O)c1cccc(C(=O)N[C@@H](c2ccccc2)[C@H](O)CNCCC2CCN(Cc3ccccc3)CC2)c1)c1ccccc1 [Derivative VII]
- IC50 ([1]; read-out: AChE IC50): 1830 nM
- IC50 [2]: 570 nM

Compound: CCN(CC)Cc1ccccc1CNC(=O)c1cccc(CC(=O)c2ccc(F)cc2)c1 [III]
- IC50 ([3]; read-out: BChE IC50): 0.08 nM

Compound: CCN(CC)Cc1ccccc1CNC(=O)c1cc(C)cc(CC(=O)c2ccc(F)cc2)c1 [IV]
- IC50 ([3]; read-out: BChE IC50): 0.039 nM

Compound: COc1cc(C(=O)Nc2cccc(NC(=O)c3cc(OC)c(OC)c(OC)c3)c2)cc(OC)c1OC [JW1, N,N′-(1,3-phenylene)bis(3,4,5-trimethoxybenzamide)]
- IC50 [4]: 770 ± 18 nM
- IC50 [5]: 54400 ± 1300 nM

Compound: COc1cc(OC)cc(C(=O)Nc2cccc(NC(=O)c3cc(OC)cc(OC)c3)c2)c1 [JW2, N,N′-(1,3-phenylene)bis(3,5-dimethoxybenzamide)]
- IC50 [4]: 2570 ± 63 nM
- IC50 [5]: 74000 ± 1610 nM

Compound: COc1ccc(C(=O)Nc2cccc(NC(=O)c3ccc(OC)c(OC)c3)c2)cc1OC [JW3, N,N′-(1,3-phenylene)bis(3,4-dimethoxybenzamide)]
- IC50 [4]: 410 ± 28 nM
- IC50 [5]: 40200 ± 8120 nM

Compound: COc1cccc(C(=O)Nc2cccc(NC(=O)c3cccc(OC)c3)c2)c1 [JW4, N,N′-(1,3-phenylene)bis(3-methoxybenzamide)]
- IC50 [4]: 1200 ± 13 nM
- IC50 [5]: 81400 ± 4110 nM

Compound: COc1cc(C(=O)Nc2ccc(NC(=O)c3cc(OC)c(OC)c(OC)c3)cc2)cc(OC)c1OC [JW5, N,N′-(1,4-phenylene)bis(3,4,5-trimethoxybenzamide)]
- IC50 [4]: 68 ± 58 nM
- IC50 [5]: 9290 ± 3020 nM

Compound: COc1cc(OC)cc(C(=O)Nc2ccc(NC(=O)c3cc(OC)cc(OC)c3)cc2)c1 [JW6, N,N′-(1,4-phenylene)bis(3,5-dimethoxybenzamide)]
- IC50 [4]: 190 ± 33 nM
- IC50 [5]: 16700 ± 250 nM

Compound: COc1ccc(C(=O)Nc2ccc(NC(=O)c3ccc(OC)c(OC)c3)cc2)cc1OC [JW7, N,N′-(1,4-phenylene)bis(3,4-dimethoxybenzamide)]
- IC50 [4]: 70 ± 3 nM
- IC50 [5]: 12800 ± 230 nM

Compound: COc1cccc(C(=O)Nc2ccc(NC(=O)c3cccc(OC)c3)cc2)c1 [JW8, N,N′-(1,4-phenylene)bis(3-methoxybenzamide)]
- IC50 [4]: 56 ± 43 nM
- IC50 [5]: 9010 ± 280 nM

Compound: COc1cc(C(=O)Nc2cccc([N+](=O)[O-])c2)cc(OC)c1OC [MB1, 3,4,5-trimethoxy-N-(3-nitrophenyl)benzamide]
- IC50 [4]: 670 ± 8 nM
- IC50 [5]: 40500 ± 2200 nM

Compound: COc1cc(NC(=O)c2cc(OC)c(OC)c(OC)c2)cc(OC)c1OC [MB3, 3,4,5-trimethoxy-N-(3,4,5-trimethoxyphenyl)benzamide]
- IC50 [4]: 110 ± 78 nM
- IC50 [5]: 20200 ± 5130 nM

Compound: COc1cc(CNC(=O)c2cc(OC)c(OC)c(OC)c2)cc(OC)c1OC [MB4, 3,4,5-trimethoxy-N-(3,4,5-trimethoxybenzyl)benzamide]
- IC50 [4]: 1170 ± 15 nM
- IC50 [5]: 87700 ± 6220 nM

Compound: O=C(NCCCCCCCCCCNc1c2c(nc3ccccc13)CCCC2)c1cc(=O)c2cc(O)ccc2o1 [Molecule VIII]
- IC50 ([6]; human AChE, read-out: IC50 for AChE): 8 nM
- IC50 ([7]; read-out: IC50 for BACE-1): 2800 nM

Compound: OC(CNCc1cccc(COc2ccccc2)c1)Cn1cc(Br)c2cc(Br)ccc21 (centres unmarked) [compound IX]
- IC50 ([1]; read-out: AChE IC50): 9100 nM
- IC50 ([2]; read-out: BACE-1 IC50): 2500 nM

Compound: COc1ccc(C(=O)N(Cc2ccc(Cl)cc2)c2cccc(Br)c2)cc1OC [compound I]
- IC50 ([1]; read-out: AChE IC50): 1570 nM
- IC50 ([3]; read-out: BuChE IC50): 2850 nM

Compound: O=C(NCc1cc(Cl)cc(Cl)c1)c1cc(Br)ccc1O [compound VI]
- IC50 ([1]; read-out: inhibitory potency of AChE activity): 33100 ± 470 nM

Compound: CC(=O)c1ccccc1NC(=O)c1ccc(OCCCCC[n+]2ccccc2)cc1 [compound XI]
- Ki ([6]; read-out: hAChE Ki): 81 nM
- IC50 [2]: 310 nM
- Ki [8]: 93 nM

Compound: COc1ccc(CNC(=O)C2CCN(C(=O)c3ccccc3)CC2)cc1OC [compound X]
- IC50 ([6]; in humans, read-out: AChE IC50): 4.11 nM
- IC50 ([7]; in humans, read-out: BACE-1 IC50): 18.3 nM

Compound: COc1ccc(C(=O)Nc2nc(CN(C)Cc3ccccc3)cs2)cc1 [substance II]
- IC50 ([1]; read-out: AChE IC50): 1470 nM
- IC50 ([3]; read-out: BuChE IC50): 11400 nM
